This is an account of results in US20230192705A1, “SHP2 INHIBITORS, COMPOSITIONS AND USES THEREOF” (Betta Pharmaceuticals Co., Ltd, priority 2020, published 2023).

The target in this experiment is T1, SHP2 (Homo sapiens, UniProt Q06124).
T1 sequence (Q06124 1-593): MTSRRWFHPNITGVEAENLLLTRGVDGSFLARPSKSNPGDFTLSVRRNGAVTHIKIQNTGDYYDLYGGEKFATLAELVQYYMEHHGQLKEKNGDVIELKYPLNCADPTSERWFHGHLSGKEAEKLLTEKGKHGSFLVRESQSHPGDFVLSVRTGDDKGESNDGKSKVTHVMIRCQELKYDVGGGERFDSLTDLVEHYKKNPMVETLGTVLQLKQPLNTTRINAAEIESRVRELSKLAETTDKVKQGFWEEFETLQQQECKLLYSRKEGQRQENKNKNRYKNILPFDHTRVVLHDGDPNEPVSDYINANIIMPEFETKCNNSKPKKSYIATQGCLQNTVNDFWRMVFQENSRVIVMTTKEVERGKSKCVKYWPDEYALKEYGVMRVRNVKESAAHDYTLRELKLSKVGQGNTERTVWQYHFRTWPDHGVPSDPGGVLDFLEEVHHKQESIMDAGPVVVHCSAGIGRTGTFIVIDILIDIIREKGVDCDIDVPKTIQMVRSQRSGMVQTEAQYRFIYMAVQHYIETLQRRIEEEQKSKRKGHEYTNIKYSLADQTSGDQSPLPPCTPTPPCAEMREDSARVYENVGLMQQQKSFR
The experiment in a line: SHP2 allosteric inhibitor enzyme activity assay (DiFMUP fluorescence). It counts as biochemical. The note with it: class symbols. The gist of the method:
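SHP2 activated by 0.5 μM IRS1_pY1172(dPEG8)pY1222 peptide, 0.2 ng enzyme per well, 1 h at room temperature with compound (1 μM top, 3-fold series), then DiFMUP substrate 1 h. Buffer: 60 mM HEPES, 75 mM NaCl, 75 mM KCl, 0.05% BRIJ-35, 1 mM EDTA, 5 mM DTT. Fluorescence ex 340/em 450 nm; IC50 by variable-slope fit.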

In turn, `N[C@@H]1c2ccccc2CC12CCN(c1nc3[nH]nc(C4(c5ccc(Cl)cc5Cl)CC4)c3c(=O)[nH]1)CC2` [Example 235, (S)-6-(1-amino-1,3-dihydrospiro[indene-2,4′-piperidin]-1′-yl)-3-(1-(2,4-dichlorophenyl)cyclopropyl)-1,5-dihydro-4H-pyrazolo[3,4-d]pyrimidin-4-one] displayed an IC50 of at most 20 nM.
On to `N[C@@H]1c2ccccc2CC12CCN(c1nc3[nH]nc(C4(c5ccnc(Cl)c5)CC4)c3c(=O)[nH]1)CC2` [Example 25, (S)-6-(1-amino-1,3-dihydrospiro[indene-2,4′-piperidin]-1′-yl)-3-(1-(2-chloropyridin-4-yl)cyclopropyl)-1,5-dihydro-4H-pyrazolo[3,4-d]pyrimidin-4-one], for which the IC50 was at most 20 nM.
Take `N[C@@H]1c2ccccc2CC12CCN(c1nc3[nH]nc(C4(c5cccc(OC(F)F)c5)CC4)c3c(=O)[nH]1)CC2` [Example 52, (S)-6-(1-amino-1,3-dihydrospiro[indene-2,4′-piperidin]-1′-yl)-3-(1-(3-(difluoromethoxy)plienyl)cyclo-propyl)-1,5-dihydro-4H-pyrazolo[3,4-d]pyrimidin-4-one]: the IC50 was at most 20 nM.
As for `N[C@@H]1c2ccccc2CC12CCN(c1nc3[nH]nc(C4(c5cccc6occc56)CC4)c3c(=O)[nH]1)CC2` [Example 80, (S)-6-(1-amino-1,3-dihydrospiro[indene-2,4′-piperidin]-1′-yl)-3-(1-(benzofuran-4-yl)cyclopropyl)-1,5-dihydro-4H-pyrazolo[3,4-d]pyrimidin-4-one], the IC50 is at most 20 nM.
With `N[C@@H]1c2ccccc2CC12CCN(c1nc3[nH]nc(C4(c5cnn(-c6ccccc6)c5)CC4)c3c(=O)[nH]1)CC2` [Example 56, (S)-6-(1-amino-1,3-dihydrospiro[indene-2,4′-piperidin]-1′-yl)-3-(1-(1-phenyl-1H-pyrazol-4-yl)cyclopropyl)-1,5-dihydro-4H-pyrazolo[3,4-d]pyrimidin-4-one] the figure was 20 to 60 nM; with `N[C@@H]1c2ccccc2CC12CCN(c1nc3[nH]nc(C4(c5ccncc5F)CC4)c3c(=O)[nH]1)CC2` [Example 58, (S)-6-(1-amino-1,3-dihydrospiro[indene-2,4′-piperidin]-1′-yl)-3-(1-(3-fluoropyridin-4-yl)cyclopropyl)-1,5-dihydro-4H-pyrazolo[3,4-d]pyrimidin-4-one], at most 20 nM; with `Cn1ncc2c1CCC=C2c1n[nH]c2nc(N3CCC4(CC3)Cc3ccccc3[C@H]4N)[nH]c(=O)c12` [Example 131, (S)-6-(1-amino-1,3-dihydrospiro[indene-2,4′-piperidin]-1′-yl)-3-(1-methyl-6,7-dihydro-1H-indazol-4-yl)-1,5-dihydro-4H-pyrazolo[3,4-d]pyrimidin-4-one], at most 20 nM.
The same measure for `N[C@@H]1c2ccccc2CC12CCN(c1nc3[nH]nc(C4(c5cccs5)CCC4)c3c(=O)[nH]1)CC2` [Example 94, (S)-6-(1-amino-1,3-dihydrospiro[indene-2,4′-piperidin]-1′-yl)-3-(1-(thiophen-2-yl)cyclobutyl)-1,5-dihydro-4H-pyrazolo[3,4-d]pyrimidin-4-one]: at most 20 nM; for `CC1(C)C=C(c2n[nH]c3nc(N4CCC5(CC4)Cc4ccccc4[C@H]5N)[nH]c(=O)c23)c2cnn(C3CC3)c2C1` [Example 152, (S)-6-(1-amino-1,3-dihydrospiro[indene-2,4′-piperidin]-1′-yl)-3-(1-cyclopropyl-6,6-dimethyl-6,7-dihydro-1H-indazol-4-yl)-1,5-dihydro-4H-pyrazolo[3,4-d]pyrimidin-4-one]: 20 to 60 nM; for `CC1(C)C=C(c2n[nH]c3nc(N4CCC5(CC4)Cc4ccccc4[C@H]5N)[nH]c(=O)c23)c2ccc(C#N)nc2C1` [Example 162, (S)-5-(6-(1-amino-1,3-dihydrospiro[indene-2,4′-piperidin]-1′-yl)-4-oxo-4,5-dihydro-1H-pyrazolo[3,4-d]pyrimidin-3-yl)-7,7-dimethyl-7,8-dihydroquinoline-2-carbonitrile]: at most 20 nM.
`N[C@@H]1c2ccccc2CC12CCN(c1nc3[nH]nc(C4(c5ccccc5)CCOCC4)c3c(=O)[nH]1)CC2` [Example 100, (S)-6-(1-amino-1,3-dihydrospiro[indene-2,4′-piperidin]-1′-yl)-3-(4-phenyltetrahydro-2H-pyran-4-yl)-1,5-dihydro-4H-pyrazolo[3,4-d]pyrimidin-4-one] showed an IC50 of 20 to 60 nM.
The molecule `C[C@@H]1OCC2(CCN(c3nc4[nH]nc(C5(c6ccc7c(c6)OC(F)(F)O7)CC5)c4c(=O)[nH]3)CC2)[C@@H]1N` [Example 308, 6-((3S,4S)-4-amino-3-methyl-2-oxa-8-azaspiro[4.5]decan-8-yl)-3-(1-(2,2-difluorobenzo[d][1,3]dioxol-5-yl)cyclopropyl)-1,5-dihydro-4H-pyrazolo[3,4-d]pyrimidin-4-one] yielded an IC50 above 60 nM.
With `N[C@@H]1c2ccccc2CC12CCN(c1nc3[nH]nc(C4(c5ccnc(N6CCOCC6)c5Cl)CC4)c3c(=O)[nH]1)CC2` [Example 65, (S)-6-(1-amino-1,3-dihydrospiro[indene-2,4′-piperidin]-1′-yl)-3-(1-(3-chloro-2-morpholinopyridin-4-yl)cyclopropyl)-1,5-dihydro-4H-pyrazolo[3,4-d]pyrimidin-4-one] the figure was 20 to 60 nM.
With `N[C@@H]1c2ccccc2CC12CCN(c1nc3[nH]nc(C4=CCS(=O)(=O)c5ccccc54)c3c(=O)[nH]1)CC2` [Example 180, (S)-6-(1-amino-1,3-dihydrospiro[indene-2,4′-piperidin]-1′-yl)-3-(1,1-dioxido-2H-thiochromen-4-yl)-1,5-dihydro-4H-pyrazolo[3,4-d]pyrimidin-4-one] the figure was at most 20 nM; with `NC1c2ccccc2CC12CCN(c1nc3[nH]nc(C4=CCCn5ccnc54)c3c(=O)[nH]1)CC2` (stereo not drawn) [Example 128], at most 20 nM.
In turn, `N[C@@H]1c2ccccc2CC12CCN(c1nc3[nH]nc(C4(c5ccccc5)CCCC4)c3c(=O)[nH]1)CC2` [Example 97, (S)-6-(1-amino-1,3-dihydrospiro[indene-2,4′-piperidin]-1′-yl)-3-(1-phenylcyclopentyl)-1,5-dihydro-4H-pyrazolo[3,4-d]pyrimidin-4-one] had an IC50 of 20 to 60 nM.
`C[C@@H]1OCC2(CCN(c3nc4[nH]nc(C5(c6cccs6)CC5)c4c(=O)[nH]3)CC2)[C@@H]1N` [Example 278, 6-((3S,4S)-4-amino-3-methyl-2-oxa-8-azaspiro[4.5]decan-8-yl)-3-(1-(thiophen-2-yl)cyclopropyl)-1,5-dihydro-4H-pyrazolo[3,4-d]pyrimidin-4-one] had an IC50 of 20 to 60 nM.
The same measure for `CC1(C)C=C(c2n[nH]c3nc(N4CCC5(CC4)Cc4ccccc4[C@H]5N)[nH]c(=O)c23)c2cnc(C(F)(F)F)nc2C1` [Example 146, (S)-6-(l-amino-1,3-dihydrospiro[indene-2,4'-piperidin]-1′-yl)-3-(7,7-dimethyl-2-(trifluoromethyl)-7,8-dihydroquinazolin-5-yl)-1,5-dihydro-4H-pyrazolo[3,4-d]pyrimidin-4-one]: at most 20 nM.
As to `CCCCCc1cc2c(s1)CCC=C2c1n[nH]c2nc(N3CCC4(CC3)Cc3ccccc3[C@H]4N)[nH]c(=O)c12` [Example 118, (S)-6-(1-amino-1,3-dihydrospiro[indene-2,4′-piperidin]-1′-yl)-3-(2-pentyl-6,7-dihydrobenzo[b]thiophen-4-yl)-1,5-dihydro-4H-pyrazolo[3,4-d]pyrimidin-4-one], the IC50 is 20 to 60 nM.
As for `N[C@@H]1c2ccccc2CC12CCN(c1nc3[nH]nc(C4=CCCc5ncc(C(F)(F)F)cc54)c3c(=O)[nH]1)CC2` [Example 138, (S)-6-(1-amino-1,3-dihydrospiro[indene-2,4′-piperidin]-1′-yl)-3-(3-(trifluoromethyl)-7,8-dihydroquinolin-5-yl)-1,5-dihydro-4H-pyrazolo[3,4-d]pyrimidin-4-one], the 50% inhibitory concentration (IC50) lay in the range of 20 to 60 nM.
With `Cc1nc2c(s1)C(c1n[nH]c3nc(N4CCC5(CC4)Cc4ccccc4C5N)[nH]c(=O)c13)=CC(C)(C)C2` (stereo not drawn) [Example 129] the figure was 20 to 60 nM; with `C[C@@H]1OCC2(CCN(c3ncc(C4(c5ccccc5)CC4)c(=O)[nH]3)CC2)[C@@H]1N` [Example 262, 2-((3S,4S)-4-amino-3-methyl-2-oxa-8-azaspiro[4.5]decan-8-yl)-5-(1-phenylcyclopropyl)pyrimidin-4(3H)-one], above 60 nM; with `N[C@@H]1Cc2ccccc2C12CCN(c1nc3[nH]nc(C4(c5ccccc5)CC4)c3c(=O)[nH]1)CC2` [Example 198, (R)-6-(2-amino-2,3-dihydrospiro[indene-1,4′-piperidin]-1′-yl)-3-(1-phenylcyclopropyl)-1,5-dihydro-4H-pyrazolo[3,4-d]pyrimidin-4-one], 20 to 60 nM.
For the molecule `N[C@@H]1c2ccccc2CC12CCN(c1nc3[nH]nc(C4(c5ccnc6ccccc56)CC4)c3c(=O)[nH]1)CC2` [Example 78, (S)-6-(1-amino-1,3-dihydrospiro[indene-2,4′-piperidin]-1′-yl)-3-(1-(quinolin-4-yl)cyclopropyl)-1,5-dihydro-4H-pyrazolo[3,4-d]pyrimidin-4-one], the IC50 was at most 20 nM.

What is called IC50 is the concentration that inhibits the measured activity by half.
